Drawing on patent US8999990B2, “Inhibitors of the renal outer medullary potassium channel” (Merck Sharp & Dohme Corp., priority 2011, dated 2015), this text covers IC50 for 23 compounds.

The target of the experiment is T1, hROMK1 (Kir1.1) (Homo sapiens, UniProt P48048).
T1 construct: expressed in transfected cells
T1 sequence (P48048 1-391): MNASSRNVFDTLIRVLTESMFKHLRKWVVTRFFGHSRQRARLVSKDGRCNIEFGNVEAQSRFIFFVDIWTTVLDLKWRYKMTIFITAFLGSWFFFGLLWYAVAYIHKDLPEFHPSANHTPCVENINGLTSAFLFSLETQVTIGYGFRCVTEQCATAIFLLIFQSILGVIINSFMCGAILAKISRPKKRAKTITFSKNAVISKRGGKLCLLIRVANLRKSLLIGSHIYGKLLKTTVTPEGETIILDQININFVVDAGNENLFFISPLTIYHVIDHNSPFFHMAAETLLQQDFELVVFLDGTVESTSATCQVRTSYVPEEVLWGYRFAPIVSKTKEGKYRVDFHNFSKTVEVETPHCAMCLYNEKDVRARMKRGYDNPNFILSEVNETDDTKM
Kind of experiment: 86Rb+ Efflux Assay. It is filed as cell-based. The note with it: CHO-DHFR- cells stably expressing hROMK1; 35 min incubation. The procedure:
Several assays may be used to measure functional inhibition of the ROMK channel by compounds of the instant invention. One assay that was used to test the activity of compounds in the Examples is the functional ^86Rb^+ efflux assay described below, that measures the ability of ROMK to permeate ^86Rb^+, in the absence or presence of test compound. Under control conditions, cells loaded with ^86Rb^+ and incubated in Rb^+-free medium display a time-dependent efflux of the isotope, the rate of which depends on number of functional channels. When cells are incubated in the presence of a channel inhibitor, efflux of ^86Rb^+ is prevented in a concentration-dependent manner, and IC50 values of inhibition by compounds can be accurately determined. This assay has been established with cell lines expressing either human, rat or dog ROMK channels, and can operate in 96- or 384-well format. Importantly, the human, rat, and dog ^86Rb^+ efflux assays can be carried out in the presence of up to 100% serum allowing, therefore, an accurate estimation of the effect of protein binding on the inhibitory activity of compounds of interest. Another ROMK functional assay used to test the activity of compounds in the Examples (described below) makes use of the ability of thallium to permeate through open ROMK channels and increase the fluorescence of a dye previously loaded into the cells. Under control conditions, cells loaded with dye and exposed to thallium-containing medium display a time-dependent increase in fluorescence, the rate of which depends on number of functional channels. When cells are incubated in the presence of a channel inhibitor, the increase in fluorescence is attenuated in a concentration-dependent manner, and IC50 values of inhibition by compounds can be accurately determined. This assay has been established with cell lines expressing either human, or rat ROMK channels, and operates in 384-well format.
CHO-DHFR-cells stably expressing hROMK1 (Kir1.1) are grown at 37° C. in a 10% CO2 humidified incubator in Iscove's Modified Dulbecco's Medium (Gibco 12440) supplemented with HT Supplement, Penicillin/Streptomycin/Glutamine, G418 (500 μg/ml) and 10% FBS. Cells are seeded in Sterile and Tissue Culture Treated Packard CulturPlate White Opaque Microplates at a concentration of 5.0E5-7.0E5 cells/ml-PerkinElmer 6005680 (96-well); Corning 3707 (384 well) in complete media containing 1.5 μCi/ml Rubidium-86. Cells are incubated in 37° C.-10% CO2 incubator overnight. On the day of the experiment, the media is removed and cells are washed with low K assay buffer. ^86Rb^+ efflux is initiated after addition of assay buffer±test compound followed by 35 min incubation at room temperature. ROMK-sensitive component of efflux is defined in the presence of 10 mM BaCl2. Assay buffer is removed and transferred to a plate and cells are solubilized in the presence of SDS. Radioactivity associated with assay and cell plate is determined.
• 1. Remove cell media and wash cells with low K assay buffer (126.9 mM NaCl, 4.6 mM KCl, 2 mM CaCl2, 1 mM MgCl2, 10 mM Hepes/NaOH; pH 7.4) • 200 μl for 96-well plate; 70 μl for 384-well plate • 2. Add assay buffer (121.5 mM NaCl, 10 mM KCl, 2 mM CaCl2, 1 mM MgCl2, 10 mM Hepes/NaOH; pH 7.4)±test compound to cells • 100 μl for 96-well plate; 50 μl for 384-well plate • 3. Incubate at ambient temperature (22-24° C.) for 35 min • 4. Remove assay buffer add it to a 96- or 384-well plate containing Microscint-20 • 96-well Plate: 100 μl buffer, 170 μl MicroScint 20 (for TopCount) • 384-well plate: 20 μl buffer, 50 μl Optiphiase (for MicroLux) • 5. Completely remove remaining assay buffer from cell plate • 6. Solubilize cells with 1% SDS; than add MicroScint or Optiphase • 96-well Plate: 30 μl SDS, 170 μl MicroScint 20 (for TopCount) • 384-well plate: 20 μl SDS, 50 μl Optiphiase (for MicroLux) • 7. Seal both cell and supernatant plates and count Data Calculation— […]

SMILES strings stand for the structures.

What is called IC50 is the midpoint of a concentration-inhibition curve. A low value points to inhibition by little substance.

Compound `N#Cc1ccc2c(c1)CC(N1CCN(CCc3ccc4c(c3)COC4=O)CC1=O)CC2` (racemic) [Example 37, 7-{2-Oxo-4-[2-(1-oxo-1,3-dihydro-2-benzofuran-5-yl)ethyl]piperazin-1-yl}-5,6,7,8-tetrahydronaphthalene-2-carbonitrile] returned an IC50 of 280 nM.
The figure for `N#Cc1ccc2c(c1)CCCC2CN1CCN(CCc2ccc3c(c2)COC3=O)CC1=O` (racemic) [Example 38, 5-({2-Oxo-4-[2-(1-oxo-1,3-dihydro-2-benzofuran-5-yl)ethyl]piperazin-1-yl}methyl)-5,6,7,8-tetrahydronaphthalene-2-carbonitrile] is 140 nM; for `N#Cc1cc(CCN2CCN(CC(F)c3ccc4c(c3)COC4=O)CC2=O)ccc1F` (racemic) [Example 39, 2-Fluoro-5-(2-{4-[2-fluoro-2-(1-oxo-1,3-dihydro-2-benzofuran-5-yl)ethyl]-2-oxopiperazin-1-yl}ethyl)benzonitrile] it is 910 nM; for `N#Cc1ccc2c(c1)CCC2CN1CCN(CCc2ccc3c(c2)COC3=O)CC1=O` (racemic) [Example 40, 1-({2-Oxo-4-[2-(1-oxo-1,3-dihydro-2-benzofuran-5-yl)ethyl]piperazin-1-yl}methyl)-2,3-dihydro-1H-indene-5-carbonitrile] it is 120 nM.
The figure for `N#Cc1ccc2c(c1)CC(CN1CCN(CCc3ccc4c(c3)COC4=O)CC1=O)C2` (racemic) [Example 41, 2-({2-Oxo-4-[2-(1-oxo-1,3-dihydro-2-benzofuran-5-yl)ethyl]piperazin-1-yl}methyl)-2,3-dihydro-1H-indene-5-carbonitrile] is 380 nM.
In the case of `N#Cc1ccc2c(c1)CCC(N1CCN(CCc3ccc4c(c3)CCOC4=O)CC1=O)C2` (racemic) [Example 42, 6-{2-Oxo-4-[2-(1-oxo-3,4-dihydro-1H-isochromen-6-yl)ethyl]piperazin-1-yl}-5,6,7,8-tetrahydronaphthalene-2-carbonitrile], 300 nM corresponded to half-maximal inhibition (IC50).
The result for `N#Cc1ccc2c(c1)CCC(N1CCN(CCc3ccc4c(=O)occc4c3)CC1=O)C2` (racemic) [Example 43, 6-{2-Oxo-4-[2-(1-oxo-1H-isochromen-6-yl)ethyl]piperazin-1-yl}-5,6,7,8-tetrahydronaphthalene-2-carbonitrile] reads 210 nM.
The result for `N#Cc1ccc2c(c1)CC(N1CCN(CCc3ccc4c(c3)COC4=O)CC1=O)C2` (racemic) [Example 44, 2-{2-Oxo-4-[2-(1-oxo-1,3-dihydro-2-benzofuran-5-yl)ethyl]piperazin-1-yl}-2,3-dihydro-1H-indene-5-carbonitrile] reads 130 nM.
The figure for `N#Cc1ccc2c(c1)CCC(N1CCN(C(=O)Cc3ccc(-n4cnnn4)cc3)CC1=O)C2` (racemic) [Example 56, 6-(2-Oxo-4-{[4-(1H-tetrazol-1-yl)phenyl]acetyl}piperazin-1-yl)-5,6,7,8-tetrahydronaphthalene-2-carbonitrile] is 720 nM; for `O=C1CN(CCc2ccc([N+](=O)[O-])cc2)CCN1CCc1ccc([N+](=O)[O-])cc1` [Example 1, 1,4-bis[2-(4-nitrophenyl)ethyl]piperazin-2-one] it is 70 nM; for `O=C1CN(CCc2ccc([N+](=O)[O-])c(C(F)(F)F)c2)CCN1CCc1ccc([N+](=O)[O-])cc1` [Example 3, 1-[2-(4-Nitrophenyl)ethyl]-4-{2-[4-nitro-3-(trifluoromethyl)phenyl]ethyl}piperazin-2-one] it is 740 nM.
Take `O=C1CN(CCc2ccc([N+](=O)[O-])cc2C(F)(F)F)CCN1CCc1ccc([N+](=O)[O-])cc1` [Example 4, 1-[2-(4-Nitrophenyl)ethyl]-4-{2-[4-nitro-2-(trifluoromethyl)phenyl]ethyl}piperazin-2-one]: half-maximal inhibition (IC50) was put at 310 nM.
With `N#Cc1ccc(CCN2CCN(CCc3ccc([N+](=O)[O-])cc3)C(=O)C2)cc1` [Example 5, 4-(2-{4-[2-(4-Nitrophenyl)ethyl]-3-oxopiperazin-1-yl}ethyl)benzonitrile], the IC50 is 120 nM.
The figure for `COC(=O)c1cc([N+](=O)[O-])ccc1CCN1CCN(CCc2ccc([N+](=O)[O-])cc2)C(=O)C1` [Example 7, Methyl 5-nitro-2-(2-{4-[2-(4-nitrophenyl)ethyl]-3-oxopiperazin-1-yl}ethyl)benzoate] is 390 nM; for `COC(=O)c1cc(CCN2CCN(CCc3ccc([N+](=O)[O-])cc3)C(=O)C2)ccc1[N+](=O)[O-]` [Example 8, Methyl 2-nitro-5-(2-{4-[2-(4-nitrophenyl)ethyl]-3-oxopiperazin-1-yl}ethyl)benzoate] it is 250 nM.
`COc1cc([N+](=O)[O-])ccc1CCN1CCN(CCc2ccc3nonc3c2)C(=O)C1` [Example 10, 1-[2-(2,1,3-Benzoxadiazol-5-yl)ethyl]-4-[2-(2-methoxy-4-nitrophenyl)ethyl]piperazin-2-one] returned an IC50 of 370 nM.
Consider `COc1cc([N+](=O)[O-])ccc1CCN1CCN(CCc2ccc([N+](=O)[O-])cc2)C(=O)C1` [Example 11, 4-[2-(2-Methoxy-4-nitrophenyl)ethyl]-1-[2-(4-nitrophenyl)ethyl]piperazin-2-one], for which the IC50 was 140 nM.
The figure for `O=C1CN(CCc2ccc([N+](=O)[O-])cc2F)CCN1CCc1ccc([N+](=O)[O-])cc1` [Example 12, 4-[2-(2-Fluoro-4-nitrophenyl)ethyl]-1-[2-(4-nitrophenyl)ethyl]piperazin-2-one] is 140 nM.
The result for `N#Cc1ccc2c(c1)CCC(N1CCN(C3CCc4cc(C#N)ccc4C3)C(=O)C1)C2` (centres unmarked) [Example 15, 6,6′-(2-Oxopiperazine-1,4-diyl)di(5,6,7,8-tetrahydronaphthalene-2-carbonitrile)] reads 51 nM; that for `N#Cc1ccc2c(c1)CCC(N1CCN([C@H]3CCc4cc(C#N)ccc4C3)C(=O)C1)C2` (stereo partly drawn) [Example 16, (6S)-6,6′-(2-oxopiperazine-1,4-diyl)-di-(5,6,7,8-tetrahydronaphthalene-2-carbonitrile)], 100 nM.
With `N#Cc1ccc2c(c1)CCC(N1CCN([C@@H]3CCc4cc(C#N)ccc4C3)C(=O)C1)C2` (stereo partly drawn) [Example 17, (6R)-6,6′-(2-oxopiperazine-1,4-diyl)-di-(5,6,7,8-tetrahydronaphthalene-2-carbonitrile)], the IC50 is 70 nM.
The result for `O=C1CN(CCc2ccc([N+](=O)[O-])c(F)c2)CCN1CCc1ccc([N+](=O)[O-])cc1` [Example 18, 4-[2-(3-Fluoro-4-nitrophenyl)ethyl]-1-[2-(4-nitrophenyl)ethyl]piperazin-2-one] reads 40 nM; that for `Cc1cc([N+](=O)[O-])ccc1CCN1CCN(CCc2ccc([N+](=O)[O-])cc2)C(=O)C1` [Example 19, 4-[2-(2-Methyl-4-nitrophenyl)ethyl]-1-[2-(4-nitrophenyl)ethyl]piperazin-2-one], 50 nM.
